According to article PMC5216056 (Nature Communications, 2017):
Several values for one entry are separate records, joined by “and”; a condition that tells them apart may be missing. Identical values can stand only once.

Target: hCB2R (Homo sapiens, UniProt P34972)
Experiment: cell-based
Type: cell-based
Set-up: expressed in transfected cells; host or cells: Flp-In-293 (Invitrogen #R750-07), pcDNA5/FRT
Conditions: not given

hCB2R, sequence (P34972 whole entry): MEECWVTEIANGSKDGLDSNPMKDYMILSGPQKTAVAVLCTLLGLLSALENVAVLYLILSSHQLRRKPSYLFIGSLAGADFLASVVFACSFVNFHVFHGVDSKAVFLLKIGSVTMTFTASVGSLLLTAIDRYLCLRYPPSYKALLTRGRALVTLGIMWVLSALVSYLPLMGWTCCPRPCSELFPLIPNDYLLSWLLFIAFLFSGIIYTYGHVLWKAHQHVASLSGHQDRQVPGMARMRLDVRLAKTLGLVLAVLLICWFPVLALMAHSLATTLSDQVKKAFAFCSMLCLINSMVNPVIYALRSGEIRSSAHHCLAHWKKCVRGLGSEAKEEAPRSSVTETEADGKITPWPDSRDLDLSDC

Structure (SMILES) | pEC50 ± SEM GIRK hCB2R
CN1CCCC[C@H]1Cn1cc(C(=O)c2cc([N+](=O)[O-])ccc2I)c2ccccc21 [(S)-AM1241] | 5.6 ± 0.14
COc1ccc(C(=O)c2c(C)n(CCN3CCOCC3)c3cc(I)ccc23)cc1 [AM630] | 5.82 ± 0.08

Same assay, conditions: normalized to CP55940

Structure (SMILES) | Emax ± SEM GIRK hCB2R [%]
CN1CCCC[C@H]1Cn1cc(C(=O)c2cc([N+](=O)[O-])ccc2I)c2ccccc21 [(S)-AM1241] | 68 ± 13

Target: T1, Rat recombinant TRPV3 (Rattus norvegicus, UniProt Q4QYD9)
T1 construct: expressed in transfected cells; host or cells: HEK293 (TRPV3-HEK-293, gift from HB Bradshaw, Indiana University)
T1 sequence (Q4QYD9 1-791): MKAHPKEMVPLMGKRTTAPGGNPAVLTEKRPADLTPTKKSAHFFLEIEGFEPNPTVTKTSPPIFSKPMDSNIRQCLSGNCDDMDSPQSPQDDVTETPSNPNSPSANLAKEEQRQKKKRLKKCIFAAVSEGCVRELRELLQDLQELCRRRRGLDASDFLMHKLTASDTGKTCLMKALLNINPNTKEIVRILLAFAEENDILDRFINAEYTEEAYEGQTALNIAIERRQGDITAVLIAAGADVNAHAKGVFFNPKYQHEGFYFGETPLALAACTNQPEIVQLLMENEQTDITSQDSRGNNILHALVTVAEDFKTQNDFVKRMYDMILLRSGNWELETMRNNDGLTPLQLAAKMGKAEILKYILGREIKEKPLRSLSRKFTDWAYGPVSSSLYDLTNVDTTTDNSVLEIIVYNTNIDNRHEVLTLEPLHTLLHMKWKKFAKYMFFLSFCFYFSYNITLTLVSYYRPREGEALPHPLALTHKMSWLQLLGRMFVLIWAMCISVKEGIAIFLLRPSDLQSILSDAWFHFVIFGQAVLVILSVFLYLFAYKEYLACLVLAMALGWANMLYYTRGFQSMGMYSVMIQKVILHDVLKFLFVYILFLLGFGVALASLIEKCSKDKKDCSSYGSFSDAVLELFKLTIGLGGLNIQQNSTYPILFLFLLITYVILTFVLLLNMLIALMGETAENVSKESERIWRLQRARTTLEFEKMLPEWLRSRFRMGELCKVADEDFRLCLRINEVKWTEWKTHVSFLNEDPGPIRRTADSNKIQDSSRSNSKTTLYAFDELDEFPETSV
Experiment: cell-based
Type: cell-based
Conditions: not given

Structure (SMILES) | TRPV3 Efficacy (% ionomycin 4μM) [%]
CN1CCCC[C@H]1Cn1cc(C(=O)c2cc([N+](=O)[O-])ccc2I)c2ccccc21 [(S)-AM1241] | 16.2
COc1ccc(C(=O)c2c(C)n(CCN3CCOCC3)c3cc(I)ccc23)cc1 [AM630] | < 10

Same assay, conditions: read-out: TRPV3 Potency EC50

Structure (SMILES) | EC50 [µM]
CN1CCCC[C@H]1Cn1cc(C(=O)c2cc([N+](=O)[O-])ccc2I)c2ccccc21 [(S)-AM1241] | 9

Same assay, conditions: vs thymol 100μM; read-out: TRPV3 IC50 for antagonism or desensitization

Structure (SMILES) | IC50 [µM]
CN1CCCC[C@H]1Cn1cc(C(=O)c2cc([N+](=O)[O-])ccc2I)c2ccccc21 [(S)-AM1241] | > 50
COc1ccc(C(=O)c2c(C)n(CCN3CCOCC3)c3cc(I)ccc23)cc1 [AM630] | > 100

Target: T2, hCB1R (Homo sapiens, UniProt P21554)
T2 construct: host or cells: CHO
Experiment: biochemical
Type: biochemical
Conditions: not given

T2 sequence (P21554 whole entry): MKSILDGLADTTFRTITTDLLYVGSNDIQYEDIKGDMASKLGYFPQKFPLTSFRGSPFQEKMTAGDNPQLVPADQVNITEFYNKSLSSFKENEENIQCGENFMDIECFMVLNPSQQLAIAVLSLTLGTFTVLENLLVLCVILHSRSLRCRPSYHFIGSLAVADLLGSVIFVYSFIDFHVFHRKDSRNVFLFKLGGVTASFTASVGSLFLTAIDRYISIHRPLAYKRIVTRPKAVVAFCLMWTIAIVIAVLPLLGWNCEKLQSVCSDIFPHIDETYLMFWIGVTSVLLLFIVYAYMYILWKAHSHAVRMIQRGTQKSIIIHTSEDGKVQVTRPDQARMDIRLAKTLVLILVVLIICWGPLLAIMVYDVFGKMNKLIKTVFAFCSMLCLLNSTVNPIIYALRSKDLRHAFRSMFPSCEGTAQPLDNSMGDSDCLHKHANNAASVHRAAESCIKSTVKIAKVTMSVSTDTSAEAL

Structure (SMILES) | pEC50 ± SEM GTPγS hCB1R
CN1CCCC[C@H]1Cn1cc(C(=O)c2cc([N+](=O)[O-])ccc2I)c2ccccc21 [(S)-AM1241] | < 5

Target: T3, Rat recombinant TRPA1 (Rattus norvegicus, UniProt Q6RI86)
T3 construct: expressed in transfected cells
Experiment: cell-based
Type: cell-based
Conditions: not given

T3 sequence (Q6RI86 whole entry): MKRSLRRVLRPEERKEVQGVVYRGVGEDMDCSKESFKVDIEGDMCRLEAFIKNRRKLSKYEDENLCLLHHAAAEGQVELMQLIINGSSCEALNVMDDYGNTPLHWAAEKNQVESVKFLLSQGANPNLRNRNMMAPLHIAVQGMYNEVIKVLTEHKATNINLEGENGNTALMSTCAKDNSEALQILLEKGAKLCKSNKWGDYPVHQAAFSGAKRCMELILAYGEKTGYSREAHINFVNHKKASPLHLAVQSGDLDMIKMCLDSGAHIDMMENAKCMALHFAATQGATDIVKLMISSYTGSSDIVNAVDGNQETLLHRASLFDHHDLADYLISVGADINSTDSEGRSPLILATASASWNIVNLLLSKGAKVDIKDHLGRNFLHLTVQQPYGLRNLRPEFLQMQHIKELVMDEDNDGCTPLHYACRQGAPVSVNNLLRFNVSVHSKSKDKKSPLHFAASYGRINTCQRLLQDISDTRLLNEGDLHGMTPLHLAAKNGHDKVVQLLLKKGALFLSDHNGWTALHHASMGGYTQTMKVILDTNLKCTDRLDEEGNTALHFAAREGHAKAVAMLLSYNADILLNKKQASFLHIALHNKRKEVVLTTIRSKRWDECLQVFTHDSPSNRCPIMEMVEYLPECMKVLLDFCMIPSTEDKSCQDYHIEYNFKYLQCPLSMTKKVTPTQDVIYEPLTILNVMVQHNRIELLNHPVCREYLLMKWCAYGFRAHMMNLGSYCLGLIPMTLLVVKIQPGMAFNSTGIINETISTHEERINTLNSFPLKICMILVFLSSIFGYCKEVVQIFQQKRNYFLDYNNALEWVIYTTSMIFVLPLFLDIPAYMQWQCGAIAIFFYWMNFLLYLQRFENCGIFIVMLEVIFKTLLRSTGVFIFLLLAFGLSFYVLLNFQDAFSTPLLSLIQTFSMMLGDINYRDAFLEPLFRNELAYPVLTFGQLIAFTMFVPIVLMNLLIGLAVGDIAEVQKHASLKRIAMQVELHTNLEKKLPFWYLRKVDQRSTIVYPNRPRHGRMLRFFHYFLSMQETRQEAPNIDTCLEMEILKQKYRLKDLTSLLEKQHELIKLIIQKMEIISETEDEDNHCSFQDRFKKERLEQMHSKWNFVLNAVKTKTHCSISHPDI

Structure (SMILES) | TRPA1 Efficacy (%AITC 100μM)
CN1CCCC[C@H]1Cn1cc(C(=O)c2cc([N+](=O)[O-])ccc2I)c2ccccc21 [(S)-AM1241] | 47.5%
COc1ccc(C(=O)c2c(C)n(CCN3CCOCC3)c3cc(I)ccc23)cc1 [AM630] | 118.0% and 118±2%

Same assay, conditions: read-out: TRPA1 Potency EC50

Structure (SMILES) | EC50 [µM]
CN1CCCC[C@H]1Cn1cc(C(=O)c2cc([N+](=O)[O-])ccc2I)c2ccccc21 [(S)-AM1241] | 5.8
COc1ccc(C(=O)c2c(C)n(CCN3CCOCC3)c3cc(I)ccc23)cc1 [AM630] | 1.9

Same assay, conditions: vs AITC 100μM, 5 min pre-incubation; read-out: TRPA1 IC50 for antagonism or desensitization

Structure (SMILES) | IC50 [µM]
CN1CCCC[C@H]1Cn1cc(C(=O)c2cc([N+](=O)[O-])ccc2I)c2ccccc21 [(S)-AM1241] | 40.9
COc1ccc(C(=O)c2c(C)n(CCN3CCOCC3)c3cc(I)ccc23)cc1 [AM630] | 3.7 ± 0.5

Target: T2, hCB1R
Experiment: cell-based
Conditions: not given

Structure (SMILES) | Emax ± SEM cAMP hCB1R | pEC50 ± SEM cAMP hCB1R
CN1CCCC[C@H]1Cn1cc(C(=O)c2cc([N+](=O)[O-])ccc2I)c2ccccc21 [(S)-AM1241] | 16 ± 2 | < 5

Target: T4, mu (MOP) (h) (Homo sapiens, UniProt P35372)
T4 construct: CEREP (contract assay)
Experiment: CEREP panel
Type: binding
Conditions: 10 µM

T4 sequence (P35372 whole entry): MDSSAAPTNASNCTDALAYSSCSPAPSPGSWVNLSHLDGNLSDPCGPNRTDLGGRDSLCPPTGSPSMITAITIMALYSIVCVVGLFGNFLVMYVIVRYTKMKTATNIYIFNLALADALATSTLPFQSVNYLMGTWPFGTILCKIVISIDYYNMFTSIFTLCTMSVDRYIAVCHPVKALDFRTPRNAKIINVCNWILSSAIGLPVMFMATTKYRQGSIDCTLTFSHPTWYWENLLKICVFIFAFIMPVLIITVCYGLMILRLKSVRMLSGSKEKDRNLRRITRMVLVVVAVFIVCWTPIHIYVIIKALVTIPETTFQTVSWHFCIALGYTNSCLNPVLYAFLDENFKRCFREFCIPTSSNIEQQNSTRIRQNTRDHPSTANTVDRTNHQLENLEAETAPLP

Structure (SMILES) | % inhibition mu (MOP) (h) [%]
CN1CCCC[C@H]1Cn1cc(C(=O)c2cc([N+](=O)[O-])ccc2I)c2ccccc21 [(S)-AM1241] | 46
COc1ccc(C(=O)c2c(C)n(CCN3CCOCC3)c3cc(I)ccc23)cc1 [AM630] | 21

Tested on: not given
Experiment: not given
Conditions: 1 μM

Structure (SMILES) | CL hepatocytes mouse [µL/min/mio cells]
CN1CCCC[C@H]1Cn1cc(C(=O)c2cc([N+](=O)[O-])ccc2I)c2ccccc21 [(S)-AM1241] | 251
COc1ccc(C(=O)c2c(C)n(CCN3CCOCC3)c3cc(I)ccc23)cc1 [AM630] | 101

Target: T5, PPARgamma (h) (Homo sapiens, UniProt P37231)
T5 construct: CEREP (contract assay)
T5 sequence (P37231 1-505): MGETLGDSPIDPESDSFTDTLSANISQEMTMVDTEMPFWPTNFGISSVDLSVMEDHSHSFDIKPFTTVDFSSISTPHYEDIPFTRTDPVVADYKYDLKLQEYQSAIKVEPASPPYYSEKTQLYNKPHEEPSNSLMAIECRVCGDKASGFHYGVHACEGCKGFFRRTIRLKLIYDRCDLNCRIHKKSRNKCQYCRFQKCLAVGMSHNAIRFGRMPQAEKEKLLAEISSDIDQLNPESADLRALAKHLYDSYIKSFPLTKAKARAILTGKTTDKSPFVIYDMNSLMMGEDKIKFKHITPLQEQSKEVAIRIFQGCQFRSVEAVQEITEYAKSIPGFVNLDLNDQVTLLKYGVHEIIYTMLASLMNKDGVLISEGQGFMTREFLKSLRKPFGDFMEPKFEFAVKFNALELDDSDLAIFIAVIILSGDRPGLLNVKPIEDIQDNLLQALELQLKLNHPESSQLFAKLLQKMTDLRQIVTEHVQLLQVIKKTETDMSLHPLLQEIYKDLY
Experiment: CEREP panel
Type: binding
Conditions: 10 µM

Structure (SMILES) | % inhibition PPARgamma (h) [%]
CN1CCCC[C@H]1Cn1cc(C(=O)c2cc([N+](=O)[O-])ccc2I)c2ccccc21 [(S)-AM1241] | 23
COc1ccc(C(=O)c2c(C)n(CCN3CCOCC3)c3cc(I)ccc23)cc1 [AM630] | 99

Target: T6, norepinephrine transporter (h) (Homo sapiens, UniProt P23975)
T6 construct: CEREP (contract assay)
Experiment: biochemical
Type: binding
Conditions: 10 µM

T6 sequence (P23975 whole entry): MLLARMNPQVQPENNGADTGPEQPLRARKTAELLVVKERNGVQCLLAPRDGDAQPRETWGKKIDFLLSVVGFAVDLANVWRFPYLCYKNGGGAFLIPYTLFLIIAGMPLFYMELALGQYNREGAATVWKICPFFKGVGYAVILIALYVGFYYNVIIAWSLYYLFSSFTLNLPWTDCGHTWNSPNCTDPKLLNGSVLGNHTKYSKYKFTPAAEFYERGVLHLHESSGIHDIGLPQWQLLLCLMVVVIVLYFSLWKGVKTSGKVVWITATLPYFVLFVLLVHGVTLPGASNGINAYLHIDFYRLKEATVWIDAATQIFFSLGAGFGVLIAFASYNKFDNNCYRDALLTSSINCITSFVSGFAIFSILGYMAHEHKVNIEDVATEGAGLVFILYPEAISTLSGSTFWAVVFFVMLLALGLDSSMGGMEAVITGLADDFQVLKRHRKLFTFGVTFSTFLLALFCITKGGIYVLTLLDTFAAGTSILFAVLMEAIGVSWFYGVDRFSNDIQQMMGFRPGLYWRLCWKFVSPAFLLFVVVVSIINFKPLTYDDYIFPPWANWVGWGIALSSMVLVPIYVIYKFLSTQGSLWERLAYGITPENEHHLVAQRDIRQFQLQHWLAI

Structure (SMILES) | % inhibition norepinephrine transporter (h) [%]
CN1CCCC[C@H]1Cn1cc(C(=O)c2cc([N+](=O)[O-])ccc2I)c2ccccc21 [(S)-AM1241] | 26
COc1ccc(C(=O)c2c(C)n(CCN3CCOCC3)c3cc(I)ccc23)cc1 [AM630] | 38

Target: T2, hCB1R
Experiment: biochemical
Type: binding
Conditions: CHO membranes; Leiden, HU210 and SR144528 from Roche

Structure (SMILES) | pKi ± SEM hCB1R
CN1CCCC[C@H]1Cn1cc(C(=O)c2cc([N+](=O)[O-])ccc2I)c2ccccc21 [(S)-AM1241] | < 5

Target: T7, PPARα (h) (Homo sapiens, UniProt Q07869)
T7 construct: CEREP (contract assay)
T7 sequence (Q07869 1-468): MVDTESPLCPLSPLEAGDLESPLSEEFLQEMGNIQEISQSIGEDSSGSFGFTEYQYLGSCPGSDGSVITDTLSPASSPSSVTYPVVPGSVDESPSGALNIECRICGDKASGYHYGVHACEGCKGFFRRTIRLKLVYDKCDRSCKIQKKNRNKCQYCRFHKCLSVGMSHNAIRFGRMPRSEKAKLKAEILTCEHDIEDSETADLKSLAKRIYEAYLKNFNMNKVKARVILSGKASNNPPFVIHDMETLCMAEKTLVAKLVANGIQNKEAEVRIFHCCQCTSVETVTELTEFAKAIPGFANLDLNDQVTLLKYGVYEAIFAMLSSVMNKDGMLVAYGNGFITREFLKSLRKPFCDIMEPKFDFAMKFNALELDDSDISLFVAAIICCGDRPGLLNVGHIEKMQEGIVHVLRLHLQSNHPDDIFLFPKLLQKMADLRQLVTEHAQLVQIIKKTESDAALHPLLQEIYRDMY
Experiment: CEREP panel
Type: binding
Conditions: 10 µM

Structure (SMILES) | % inhibition PPARα (h) [%]
CN1CCCC[C@H]1Cn1cc(C(=O)c2cc([N+](=O)[O-])ccc2I)c2ccccc21 [(S)-AM1241] | -18
COc1ccc(C(=O)c2c(C)n(CCN3CCOCC3)c3cc(I)ccc23)cc1 [AM630] | -17

Tested on: not listed separately
Experiment: logD distribution coefficient
Conditions: distribution coefficient

Structure (SMILES) | logD
CN1CCCC[C@H]1Cn1cc(C(=O)c2cc([N+](=O)[O-])ccc2I)c2ccccc21 [(S)-AM1241] | 3.64
COc1ccc(C(=O)c2c(C)n(CCN3CCOCC3)c3cc(I)ccc23)cc1 [AM630] | 3.82

Tested on: PCP
Experiment: not given
Type: binding
Conditions: 10 µM

Structure (SMILES) | % inhibition PCP [%]
CN1CCCC[C@H]1Cn1cc(C(=O)c2cc([N+](=O)[O-])ccc2I)c2ccccc21 [(S)-AM1241] | 2
COc1ccc(C(=O)c2c(C)n(CCN3CCOCC3)c3cc(I)ccc23)cc1 [AM630] | 9

Target: T8, Rat recombinant TRPM8 (Rattus norvegicus, UniProt Q8R455)
T8 construct: expressed in transfected cells; host or cells: HEK293 (TRPM8-HEK-293, gift from Mario van der Stelt)
Experiment: TRP channel [Ca2+]i assay
Type: cell-based
Conditions: vs icilin 0.1μM (second value in cell); read-out: TRPM8 IC50 for antagonism of icilin

T8 sequence (Q8R455 whole entry): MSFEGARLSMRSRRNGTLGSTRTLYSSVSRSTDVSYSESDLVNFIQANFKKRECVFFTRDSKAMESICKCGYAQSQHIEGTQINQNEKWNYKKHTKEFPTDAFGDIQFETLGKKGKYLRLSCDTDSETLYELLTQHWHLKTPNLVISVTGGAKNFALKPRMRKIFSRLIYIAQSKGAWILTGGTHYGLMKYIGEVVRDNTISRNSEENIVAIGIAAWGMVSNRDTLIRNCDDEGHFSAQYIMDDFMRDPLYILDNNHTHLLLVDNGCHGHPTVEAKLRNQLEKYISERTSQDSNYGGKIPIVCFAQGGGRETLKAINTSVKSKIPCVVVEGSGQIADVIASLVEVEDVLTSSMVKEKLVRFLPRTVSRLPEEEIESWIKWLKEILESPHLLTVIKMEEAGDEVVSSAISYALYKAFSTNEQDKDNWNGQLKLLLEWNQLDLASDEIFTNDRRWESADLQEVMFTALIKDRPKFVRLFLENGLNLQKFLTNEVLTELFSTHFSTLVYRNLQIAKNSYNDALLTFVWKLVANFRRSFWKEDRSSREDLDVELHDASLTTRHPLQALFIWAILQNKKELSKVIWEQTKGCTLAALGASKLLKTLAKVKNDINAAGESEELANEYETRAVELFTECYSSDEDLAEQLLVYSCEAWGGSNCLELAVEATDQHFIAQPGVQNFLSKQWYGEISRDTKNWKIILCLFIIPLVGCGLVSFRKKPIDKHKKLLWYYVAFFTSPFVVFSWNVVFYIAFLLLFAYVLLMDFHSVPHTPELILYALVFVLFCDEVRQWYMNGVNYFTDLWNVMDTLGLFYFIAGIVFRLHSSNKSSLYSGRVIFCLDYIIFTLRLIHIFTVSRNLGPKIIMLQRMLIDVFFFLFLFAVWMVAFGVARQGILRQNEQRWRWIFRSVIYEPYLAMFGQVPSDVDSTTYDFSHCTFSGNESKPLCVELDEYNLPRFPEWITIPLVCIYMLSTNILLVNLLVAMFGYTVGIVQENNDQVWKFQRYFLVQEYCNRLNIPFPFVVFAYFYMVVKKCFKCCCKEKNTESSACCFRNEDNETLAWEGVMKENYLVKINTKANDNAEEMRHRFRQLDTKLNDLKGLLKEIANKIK

Structure (SMILES) | IC50 [µM]
COc1ccc(C(=O)c2c(C)n(CCN3CCOCC3)c3cc(I)ccc23)cc1 [AM630] | 1.9 ± 0.1

Same assay, conditions: vs icilin […]; read-out: TRPM8 IC50 for antagonism of icilin

Structure (SMILES) | IC50 [µM]
CN1CCCC[C@H]1Cn1cc(C(=O)c2cc([N+](=O)[O-])ccc2I)c2ccccc21 [(S)-AM1241] | > 50
COc1ccc(C(=O)c2c(C)n(CCN3CCOCC3)c3cc(I)ccc23)cc1 [AM630] | 4.3 ± 0.3
